The values that follow come from PubChem BioAssay AID330 (DTP/NCI, 2004).

“And” between values parts separate entries of the source, which are not always exact repeats. Identical values can stand only once. Toxic doses and inconclusive results are not listed.

The assay concerns P388 leukemia ip, CD2F1 mice, survival T/C. Nature of the assay: NCI In Vivo Anticancer Drug Screen. Data for tumor model P388 Leukemia (intraperitoneal) in CD2F1 (CDF1) mice. The settings on record: endpoint: median survival time, higher = longer survival. In outline: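 Mice carrying the transplanted tumor received test compound or vehicle. Survival was recorded in each group, and the value is the treated-group measurement divided by that of the vehicle-treated control group.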

Where [1] appears, read: dose: 50.0 mg/kg/injection, schedule: Q01DX009 (ip), vehicle: saline with Tween-80.
Setting [2] is: dose: 100.0 mg/kg/injection, schedule: Q01DX009 (ip), vehicle: saline with Tween-80.
[3] abbreviates: dose: 200.0 mg/kg/injection, schedule: Q01DX009 (ip), vehicle: saline with Tween-80.
Where [4] appears, read: dose: 25.0 mg/kg/injection, schedule: Q01DX009 (ip), vehicle: saline with Tween-80.
Setting [5] is: dose: 50.0 mg/kg/injection, schedule: Q01DX005 (ip), vehicle: Klucel (hydroxypropylcellulose) (HPC).
Where [6] appears, read: dose: 100.0 mg/kg/injection, schedule: Q01DX005 (ip), vehicle: Klucel (hydroxypropylcellulose) (HPC).
Where [7] appears, read: dose: 6.25 mg/kg/injection, schedule: Q01DX005 (ip), vehicle: saline with Tween-80.
Setting [8] is: dose: 12.5 mg/kg/injection, schedule: Q01DX005 (ip), vehicle: saline with Tween-80.

For `Cc1ccc2c(/C=C/c3ccc(N(C)C)cc3)ccnc2c1C`, the T/C (dose: 12.5 mg/kg/injection, schedule: Q01DX009 (ip), vehicle: saline with Tween-80) was 123 % of control; the T/C under setting [1] was 150 % of control; the T/C under setting [2] is 99 % of control.

As for `CC(O)c1cccc(C(C)(C)O)c1Sc1c(C(C)(C)O)cccc1C(C)(C)O` (configuration not stated), the T/C runs as follows: (dose: 100.0 mg/kg/injection, schedule: Q04DX003 (ip), vehicle: Klucel (hydroxypropylcellulose) (HPC)) 99 % of control; (dose: 200.0 mg/kg/injection, schedule: Q04DX003 (ip), vehicle: Klucel (hydroxypropylcellulose) (HPC)) 98 % of control; (dose: 400.0 mg/kg/injection, schedule: Q04DX003 (ip), vehicle: Klucel (hydroxypropylcellulose) (HPC)) 97 % of control.

On to `CC1C(=O)CC2CCC1N2C(=O)O` (configuration not stated), for which the T/C was 96 % of control (dose: 50.0 mg/kg/injection, schedule: Q01DX005 (ip), vehicle: saline); 96 % of control (dose: 100.0 mg/kg/injection, schedule: Q01DX005 (ip), vehicle: saline); 94 % of control (dose: 200.0 mg/kg/injection, schedule: Q01DX005 (ip), vehicle: saline).

In the case of `Clc1nc(Cl)nc(N2CCCc3ccccc32)n1`, the T/C reads like this: under setting [1], 89 % of control; under setting [2], 96 % of control; under setting [3], 93 % of control.

`CC(C)SC(=S)S(=O)(=O)c1ccc(Cl)cc1`: the T/C is 104 % of control and 110 % of control under setting [4]; 107 % of control (2×) and 111 % of control under setting [1]; 104 % of control and 114 % of control and 121 % of control under setting [2].

For the compound `COc1ccc(C(=O)C(CCC(=O)/C=C/c2ccccc2)S(C)(=O)=O)cc1` (configuration not stated), the T/C reads like this: under setting [5], 105 % of control; under setting [6], 99 % of control; (dose: 200.0 mg/kg/injection, schedule: Q01DX005 (ip), vehicle: Klucel (hydroxypropylcellulose) (HPC)) 87 % of control.

For the compound `O=C(c1ccc(Cl)cc1)c1cnc2nc(-c3ccccc3)c(-c3ccccc3)nn12`, the T/C by setting is: under setting [7], 97 % of control; under setting [8], 98 % of control; (dose: 25.0 mg/kg/injection, schedule: Q01DX005 (ip), vehicle: saline with Tween-80) 97 % of control; (dose: 50.0 mg/kg/injection, schedule: Q01DX005 (ip), vehicle: saline with Tween-80) 103 % of control; (dose: 100.0 mg/kg/injection, schedule: Q01DX005 (ip), vehicle: saline with Tween-80) 113 % of control; (dose: 200.0 mg/kg/injection, schedule: Q01DX005 (ip), vehicle: saline with Tween-80) 115 % of control.

Turning to `O=C(O)COc1ccc2ccccc2c1`, the T/C by setting is: under setting [2], 90 % of control; (dose: 100.0 mg/kg/injection, schedule: Q04DX003 (ip), vehicle: saline with Tween-80) 100 % of control; under setting [3], 100 % of control; (dose: 200.0 mg/kg/injection, schedule: Q04DX003 (ip), vehicle: saline with Tween-80) 110 % of control.

Take `CN(C)c1ccc(C(=C2C=CC(=[N+](C)C)C=C2)c2ccccc2Cl)cc1`: the T/C was 117 % of control (dose: 1.56 mg/kg/injection, schedule: Q01DX005 (ip), vehicle: saline with Tween-80); 117 % of control and 121 % of control (dose: 3.13 mg/kg/injection, schedule: Q01DX005 (ip), vehicle: saline with Tween-80); 118 % of control (2×) and 121 % of control under setting [7]; 112 % of control and 88 % of control under setting [8].

As to `O=CC(NC(=O)N(CCCl)N=O)C(O)C(O)C(O)CO` (configuration not stated), the T/C (dose: 0.78 mg/kg/injection, schedule: Q01DX009 (ip), vehicle: saline) is 156 % of control; the T/C (dose: 1.5 mg/kg/injection, schedule: Q01DX005 (ip), vehicle: water) is 158 % of control; the T/C (dose: 1.5 mg/kg/injection, schedule: Q04DX003 (ip), vehicle: saline) is 153 % of control; the T/C (dose: 1.56 mg/kg/injection, schedule: Q01DX009 (ip), vehicle: saline) is 195 % of control; the T/C (dose: 3.0 mg/kg/injection, schedule: Q01DX005 (ip), vehicle: saline) was 169 % of control; the T/C (dose: 3.0 mg/kg/injection, schedule: Q01DX005 (ip), vehicle: water) is 163 % of control and 187 % of control. The T/C was 174 % of control (dose: 3.0 mg/kg/injection, schedule: Q04DX003 (ip), vehicle: saline); 263 % of control (dose: 3.12 mg/kg/injection, schedule: Q01DX009 (ip), vehicle: saline); 166 % of control (dose: 4.32 mg/kg/injection, schedule: Q04DX002 (ip), vehicle: saline); 157 % of control (dose: 6.0 mg/kg/injection, schedule: Q01DX001 (ip), vehicle: saline); 109 % of control (dose: 6.0 mg/kg/injection, schedule: Q01DX001 (iv), vehicle: saline); 205 % of control (dose: 6.0 mg/kg/injection, schedule: Q01DX005 (ip), vehicle: saline). In addition, the T/C reads like this: (dose: 6.0 mg/kg/injection, schedule: Q01DX005 (ip), vehicle: water) 199 % of control and 264 % of control; (dose: 6.0 mg/kg/injection, schedule: Q01DX005 (iv), vehicle: saline) 192 % of control; (dose: 6.0 mg/kg/injection, schedule: Q04DX003 (ip), vehicle: saline) 205 % of control; (dose: 7.2 mg/kg/injection, schedule: Q04DX002 (ip), vehicle: saline) 169 % of control; (dose: 12.0 mg/kg/injection, schedule: Q01DX001 (ip), vehicle: saline) 212 % of control; (dose: 12.0 mg/kg/injection, schedule: Q01DX005 (ip), vehicle: saline) 258 % of control. For the same compound, the T/C (dose: 12.0 mg/kg/injection, schedule: Q01DX005 (ip), vehicle: water) is 265 % of control and 91 % of control; the T/C (dose: 12.0 mg/kg/injection, schedule: Q01DX005 (iv), vehicle: saline) is 119 % of control; the T/C (dose: 12.0 mg/kg/injection, schedule: Q04DX002 (ip), vehicle: saline) is 212 % of control; the T/C (dose: 12.0 mg/kg/injection, schedule: Q04DX003 (ip), vehicle: saline) was 285 % of control and 371 % of control and 401 % of control; the T/C (dose: 18.0 mg/kg/injection, schedule: Q04DX003 (ip), vehicle: saline) is 153 % of control and 175 % of control; the T/C (dose: 20.0 mg/kg/injection, schedule: Q04DX002 (ip), vehicle: saline) was 287 % of control. Also, the T/C was 277 % of control (dose: 24.0 mg/kg/injection, schedule: Q01DX001 (ip), vehicle: saline); 166 % of control (dose: 24.0 mg/kg/injection, schedule: Q01DX001 (iv), vehicle: saline); 96 % of control (dose: 27.0 mg/kg/injection, schedule: Q04DX003 (ip), vehicle: saline); 74 % of control and 98 % of control (dose: 40.0 mg/kg/injection, schedule: Q04DX003 (ip), vehicle: saline).

Take `CC(=O)O[C@@H]1C[C@@]2(C)C(CC(=O)[C@@H](C)[C@@H]2CC(=O)c2ccoc2)[C@@H](CO)[C@@H]1O` (some centres not stated): the T/C by setting is: (dose: 12.5 mg/kg/injection, schedule: Q01DX005 (ip), vehicle: Klucel (hydroxypropylcellulose) (HPC)) 103 % of control; (dose: 25.0 mg/kg/injection, schedule: Q01DX005 (ip), vehicle: Klucel (hydroxypropylcellulose) (HPC)) 100 % of control; under setting [5], 109 % of control; under setting [6], 106 % of control; (dose: 100.0 mg/kg/injection, schedule: Q01DX005 (ip), vehicle: Klucel + Tween-80) 107 % of control; (dose: 200.0 mg/kg/injection, schedule: Q01DX005 (ip), vehicle: Klucel + Tween-80) 107 % of control. Further, under “dose: 400.0 mg/kg/injection, schedule: Q01DX005 (ip), vehicle: Klucel + Tween-80”, the T/C is 101 % of control.

With `CC([NH-])CC(C)[NH-].O=[N+]([O-])O.O=[N+]([O-])O.[Pt+2]` (configuration not stated), where the note is “dose: 25.0 mg/kg/injection, schedule: Q04DX002 (ip), vehicle: saline”, the T/C is 159 % of control.

For the compound `CC1(C)CC(=O)C=C(NC2CCCCC2)C1`, the T/C under setting [1] was 91 % of control and the T/C under setting [2] was 100 % of control.

On to `CC(C)Cc1nccs1`, for which the T/C is 105 % of control under setting [4]; 105 % of control and 110 % of control under setting [1]; 106 % of control and 117 % of control under setting [2]; 118 % of control under setting [3].

Turning to `Cn1c(-c2ccccc2Cl)cc(C=O)c1-c1ccccc1`, the T/C runs as follows: (dose: 100.0 mg/kg/injection, schedule: Q01DX001 (ip), vehicle: saline with Tween-80) 99 % of control; (dose: 200.0 mg/kg/injection, schedule: Q01DX001 (ip), vehicle: saline with Tween-80) 93 % of control; (dose: 400.0 mg/kg/injection, schedule: Q01DX001 (ip), vehicle: saline with Tween-80) 93 % of control.
